Results: the supplement of paper PMC4862054

test system: SK-BR-3; conditions: 72 h
How it was run: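 Breast cancer cell lines in 20 µl suspension were seeded onto 384-well plates that already held compound dissolved in 5 µl medium and were incubated for 72 h. Viability was measured by adding 2.5 µl CellTiter-Blue for 2 h at 37 °C and reading fluorescence at 560/590 nm. Each plate was normalised to vehicle and a positive kill control and checked by Z'-factor. EC50 was taken from a fitted percent-inhibition dose-response curve, censored at the highest concentration, and rows with a drug sensitivity score of zero were removed.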

| EC50, CellTiter-Blue viability | Structure (SMILES) |
| --- | --- |
| 0.0802 µM | CN[C@@H]1C[C@H]2O[C@@](C)([C@@H]1OC)n1c3ccccc3c3c4c(c5c6ccccc6n2c5c31)C(=O)N[C@H]4O [UCN-01] |
| 4.16 µM | C[C@@H](Oc1cc(-c2cnn(C3CCNCC3)c2)cnc1N)c1c(Cl)ccc(F)c1Cl [Crizotinib] |
| 4.99 µM | C#Cc1cccc(Nc2ncnc3cc(OCCOC)c(OCCOC)cc23)c1 [Erlotinib] |
| 1.13 µM | N[C@@H](CSC(c1ccccc1)(c1ccccc1)c1ccccc1)C(=O)O [S-trityl-L-cysteine] |
| 0.785 µM | COc1cc([C@@H]2c3cc4c(cc3[C@@H](O[C@@H]3O[C@@H]5CO[C@@H](C)O[C@H]5[C@H](O)[C@H]3O)[C@H]3COC(=O)[C@H]23)OCO4)cc(OC)c1O [Etoposide] |
| 0.00074 µM | Cc1ccc(C(=O)N(CCCN)[C@@H](c2oc3cc(Cl)ccc3c(=O)c2Cc2ccccc2)C(C)C)cc1 |
| 0.00815 µM | CO[C@H]1/C=C\C=C(/C)C(=O)NC2=CC(=O)C(NCCN(C)C)=C(C[C@@H](C)C[C@H](OC)[C@H](O)[C@@H](C)/C=C(\C)[C@@H]1OC(N)=O)C2=O [Alvespimycin] |
| 0.364 µM | NC(=O)Nc1cc(-c2cccc(F)c2)sc1C(=O)N[C@H]1CCCNC1 [AZD 7762] |

| Structure (SMILES) | EC50, CellTiter-Blue viability |
| --- | --- |
| Cn1c(CCCC(=O)O)nc2cc(N(CCCl)CCCl)ccc21 [Bendamustine] | > 10 µM |

test system: BT-474; conditions: 72 h
Experimental: (§1)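 Drug sensitivity and resistance testing (DSRT) of breast cancer cell lines in 384-well plates, 5 concentrations in 10-fold dilutions over a compound-specific 10,000-fold range. After 72 h, cytotoxicity was read by CellTox Green fluorescence and viability by CellTiter-Glo luminescence (multiplexed), normalised to DMSO and benzethonium chloride controls. EC50 is the inflection point of the fitted dose-response curve (bottom asymptote free, so it can be relative for partial curves) and is censored at the highest tested concentration. Rows with DSS 0 (no meaningful response) were excluded.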

| Structure (SMILES) | EC50, CellTox Green |
| --- | --- |
| CN[C@@H]1C[C@H]2O[C@@](C)([C@@H]1OC)n1c3ccccc3c3c4c(c5c6ccccc6n2c5c31)C(=O)N[C@H]4O [UCN-01] | 2.47 µM |
| O=C(CCCCCCC(=O)Nc1ccc([C@H]2O[C@@H](CSc3nc(-c4ccccc4)c(-c4ccccc4)o3)C[C@@H](c3ccc(CO)cc3)O2)cc1)NO [Tubacin] | 1.88 µM |
| CO[C@H]1/C=C\C=C(/C)C(=O)NC2=CC(=O)C(NCCN(C)C)=C(C[C@@H](C)C[C@H](OC)[C@H](O)[C@@H](C)/C=C(\C)[C@@H]1OC(N)=O)C2=O [Alvespimycin] | 0.0773 µM |
| COc1cc2ncnc(Nc3ccc(F)c(Cl)c3)c2cc1NC(=O)/C=C/CN1CCCCC1 [Dacomitinib] | 0.0824 µM |

test system: BT-549; conditions: 72 h
Experimental: as §1

| Structure (SMILES) | EC50, CellTox Green |
| --- | --- |
| CN[C@@H]1C[C@H]2O[C@@](C)([C@@H]1OC)n1c3ccccc3c3c4c(c5c6ccccc6n2c5c31)C(=O)N[C@H]4O [UCN-01] | 0.22 µM |
| CC(C)Cn1cnc2c(N)nc3ccccc3c21 [Imiquimod] | > 2.5 µM |
| O=P1(NCCCl)OCCCN1CCCl (stereo not drawn) [Ifosfamide] | > 10 µM |
| Cn1c(Nc2ccc(C(F)(F)F)cc2)nc2cc(Oc3ccnc(-c4ncc(C(F)(F)F)[nH]4)c3)ccc21 [RAF265] | 0.581 µM |
| N#CCNC(=O)c1ccc(-c2ccnc(Nc3ccc(N4CCOCC4)cc3)n2)cc1 [Momelotinib] | 3.3 µM |

test system: CAL-120; conditions: 72 h
Experimental: as §1

| Structure (SMILES) | EC50, CellTox Green |
| --- | --- |
| Cc1ccc(C(=O)Nc2ccc(CN3CCN(C)CC3)c(C(F)(F)F)c2)cc1C#Cc1cnc2cccnn12 [Ponatinib] | 0.482 µM |
| CN[C@@H]1C[C@H]2O[C@@](C)([C@@H]1OC)n1c3ccccc3c3c4c(c5c6ccccc6n2c5c31)C(=O)N[C@H]4O [UCN-01] | 1.58 µM |
| COc1cc([C@@H]2c3cc4c(cc3[C@@H](O[C@@H]3O[C@@H]5CO[C@@H](C)O[C@H]5[C@H](O)[C@H]3O)[C@H]3COC(=O)[C@H]23)OCO4)cc(OC)c1O [Etoposide] | 3.67 µM |
| CO[C@H]1/C=C\C=C(/C)C(=O)NC2=CC(=O)C(NCCN(C)C)=C(C[C@@H](C)C[C@H](OC)[C@H](O)[C@@H](C)/C=C(\C)[C@@H]1OC(N)=O)C2=O [Alvespimycin] | > 1 µM |

test system: CAL-148; conditions: 72 h
Experimental: as §1

| Structure (SMILES) | EC50, CellTox Green |
| --- | --- |
| CN[C@@H]1C[C@H]2O[C@@](C)([C@@H]1OC)n1c3ccccc3c3c4c(c5c6ccccc6n2c5c31)C(=O)N[C@H]4O [UCN-01] | 6.85 µM |
| COc1cc([C@@H]2c3cc4c(cc3[C@@H](O[C@@H]3O[C@@H]5CO[C@@H](C)O[C@H]5[C@H](O)[C@H]3O)[C@H]3COC(=O)[C@H]23)OCO4)cc(OC)c1O [Etoposide] | 3.02 µM |
| O=C1CCC(N2C(=O)c3ccccc3C2=O)C(=O)N1 (stereo not drawn) [Thalidomide] | > 10 µM |
| CO[C@H]1/C=C\C=C(/C)C(=O)NC2=CC(=O)C(NCCN(C)C)=C(C[C@@H](C)C[C@H](OC)[C@H](O)[C@@H](C)/C=C(\C)[C@@H]1OC(N)=O)C2=O [Alvespimycin] | 0.045 µM |

test system: CAL-51; conditions: 72 h
Experimental: as §1

| Structure (SMILES) | EC50, CellTox Green |
| --- | --- |
| NC(=O)Nc1cc(-c2cccc(F)c2)sc1C(=O)N[C@H]1CCCNC1 [AZD7762] | 0.5 µM |
| CN[C@@H]1C[C@H]2O[C@@](C)([C@@H]1OC)n1c3ccccc3c3c4c(c5c6ccccc6n2c5c31)C(=O)N[C@H]4O [UCN-01] | 0.0639 µM |
| C#Cc1cccc(Nc2ncnc3cc(OCCOC)c(OCCOC)cc23)c1 [Erlotinib] | 3.16 µM |
| COc1cc([C@@H]2c3cc4c(cc3[C@@H](O[C@@H]3O[C@@H]5CO[C@@H](C)O[C@H]5[C@H](O)[C@H]3O)[C@H]3COC(=O)[C@H]23)OCO4)cc(OC)c1O [Etoposide] | 0.624 µM |
| O=C(CCCCCCC(=O)Nc1ccc([C@H]2O[C@@H](CSc3nc(-c4ccccc4)c(-c4ccccc4)o3)C[C@@H](c3ccc(CO)cc3)O2)cc1)NO [Tubacin] | 2.07 µM |
| CO[C@H]1/C=C\C=C(/C)C(=O)NC2=CC(=O)C(NCCN(C)C)=C(C[C@@H](C)C[C@H](OC)[C@H](O)[C@@H](C)/C=C(\C)[C@@H]1OC(N)=O)C2=O [Alvespimycin] | 0.0358 µM |

test system: CAL-85-1; conditions: 72 h
Experimental: as §1

| Structure (SMILES) | EC50, CellTox Green |
| --- | --- |
| NC(=O)Nc1cc(-c2cccc(F)c2)sc1C(=O)N[C@H]1CCCNC1 [AZD7762] | 0.0758 µM |
| CN[C@@H]1C[C@H]2O[C@@](C)([C@@H]1OC)n1c3ccccc3c3c4c(c5c6ccccc6n2c5c31)C(=O)N[C@H]4O [UCN-01] | 0.168 µM |
| C#Cc1cccc(Nc2ncnc3cc(OCCOC)c(OCCOC)cc23)c1 [Erlotinib] | 1.59 µM |
| Cn1c(Nc2ccc(C(F)(F)F)cc2)nc2cc(Oc3ccnc(-c4ncc(C(F)(F)F)[nH]4)c3)ccc21 [RAF265] | 0.139 µM |
| COc1cc([C@@H]2c3cc4c(cc3[C@@H](O[C@@H]3O[C@@H]5CO[C@@H](C)O[C@H]5[C@H](O)[C@H]3O)[C@H]3COC(=O)[C@H]23)OCO4)cc(OC)c1O [Etoposide] | 7.71 µM |
| O=C(CCCCCCC(=O)Nc1ccc([C@H]2O[C@@H](CSc3nc(-c4ccccc4)c(-c4ccccc4)o3)C[C@@H](c3ccc(CO)cc3)O2)cc1)NO [Tubacin] | 3.16 µM |
